# Measured values: doi:10.1101/322404v1, “Discovery of a novel stereospecific β-hydroxyacyl-CoA lyase/thioesterase shared by three metabolic pathways in Mycobacterium tuberculosis” (biorxiv, 2018)
# Key:
# Rv2498c [1] = molecular target: T1, Rv2498c (Mycobacterium tuberculosis, UniProt P9WPE1)
# T1 construct: gene citE
# Rv2498c [2] = molecular target: T1, Rv2498c; remark: listed apart in the source
# Rv2498c [3] = molecular target: T1, Rv2498c; remark: listed apart in the source
# Rv2498c [4] = molecular target: T1, Rv2498c; remark: listed apart in the source
# T1 sequence (P9WPE1 whole entry): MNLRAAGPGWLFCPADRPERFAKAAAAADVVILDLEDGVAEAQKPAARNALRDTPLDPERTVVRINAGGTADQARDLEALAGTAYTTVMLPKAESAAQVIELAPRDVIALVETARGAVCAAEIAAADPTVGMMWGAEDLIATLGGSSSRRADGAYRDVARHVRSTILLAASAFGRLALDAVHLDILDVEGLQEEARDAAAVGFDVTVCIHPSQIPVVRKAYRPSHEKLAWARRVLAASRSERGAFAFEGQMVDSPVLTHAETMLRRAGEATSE
structure (smiles),measurement,setting,value
CC(C)(COP(=O)(O)OP(=O)(O)OC[C@H]1O[C@@H](n2cnc3c(N)ncnc32)[C@H](O)[C@@H]1OP(=O)(O)O)[C@@H](O)C(=O)NCCC(=O)NCCSC(=O)C[C@](C)(O)CC(=O)O [(R)-HMG-CoA],HPLC lyase assay and 1H NMR of products,Rv2498c [1],we found that Rv2498c is a lyase specific for the (R)-HMG-CoA
CC(C)(COP(=O)(O)OP(=O)(O)OC[C@H]1O[C@@H](n2cnc3c(N)ncnc32)[C@H](O)[C@@H]1OP(=O)(O)O)[C@@H](O)C(=O)NCCC(=O)NCCSC(=O)C[C@](C)(O)C(=O)O [(S)-citramalyl-CoA],"X-ray crystal structure, 1.83 A",Rv2498c [2],two citramalyl-CoA molecules
CC(C)(COP(=O)(O)OP(=O)(O)OC[C@H]1O[C@@H](n2cnc3c(N)ncnc32)[C@H](O)[C@@H]1OP(=O)(O)O)[C@@H](O)C(=O)NCCC(=O)NCCSC(=O)C[C@H](O)C(=O)O [(S)-malyl-CoA],HPLC thioesterase assay,Rv2498c [3],Rv2498c was found to subsequently catalyse the hydrolysis of the thioester bond of (S)-malyl-CoA
CC(C)(COP(=O)(O)OP(=O)(O)OC[C@H]1O[C@@H](n2cnc3c(N)ncnc32)[C@H](O)[C@@H]1OP(=O)(O)O)[C@@H](O)C(=O)NCCC(=O)NCCS [CoA],"X-ray crystal structure, 1.72 A (6ARB) and 2.04 A (6AS5)",Rv2498c [4],"A magnesium ion, coordinated pyruvate, and CoA molecule were observed in the active sites"
